# In US10390521B2, “Parkinsons disease model and methods” (Boston Medical Center Corporation, priority 2013, dated 2019):
# Tests used:
# [1] = test system: PLA2g6; assay: PLA2g6 catalytic activity in homogenates of brain or MEFs; type: biochemical, mouse; conditions: no differences between KO^Ex2 and WT
# Procedure: The activity of PLA2g6 (FIG. 14) was determined using modified PLA2 assay kit (Cayman, USA), as previously described (56, 63). Briefly, after each experimental treatment, MEFs were homogenized using a cold lysis buffer (10 mM Tris-HCl, pH 7.0, 300 mM sucrose, 0.5% Triton X-100). To identify specific activity of Ca^2+-independent PLA2g6, the assay buffers were modified to contain no Ca^2+, and phospholipase activity was assayed by incubating the samples with the substrate, 1-hexadecyl-2-arachidonoylthio-2-deoxy-sn-glycero-3-phosphorylcholine for 1 h at room temperature in a modified Ca^2+-free assay buffer (10 mM HEPES, pH 7.4, 300 mM NaCl, 60% glycerol, 8 mM Triton X-100, 4 mM EGTA, and 2 mg/ml bovine serum albumin). The generated free thiols were visualized by the addition of DTNB (5,5′-dithiobis(2-[…])) for 5 min, and the absorbance was determined at 405 nm using a standard microplate reader. In calculations of specific PLA2g6 activity a value of 10 mM^−1 was used as extinction coefficient for DTNB at 405 nm. Summary data present average (±SEM) from 3 independent experiments for each condition.
# [2] = test system: KO^Ex2 mice; assay: L-DOPA challenge, beam balance test; type: in vivo, mouse
# Procedure: The balance beam test (FIG. 10d) was performed using standard approach (55). […] KO^ex2 and WT males from 8 to 24 month of age were tested. Each mouse was placed on a beam for 2 minutes, and its movement was recorded by video camera. The total travel distance, the number of missteps (paw faults, or slips) during travel were analyzed for each mouse, and data summarized for each group as mean±SEM; the numbers of animals used for each time point is identified on the graphs. L-DOPA challenge test (FIG. 10e) was performed on KO^ex2 and WT littermates mice at 12, 16 and 24 months of age. Control beam balance test was performed in the morning a day before L-DOPA challenge. In the morning of the following day, all mice received a single dose of L-3,4-dihydroxyphenylalanine (L-DOPA) via peritoneal injection. Three different doses (5, 10 and 25 mg/kg, Sigma) were tested on the same groups of animals in separate experiments performed with 2-3 days intervals. During each test 20 minutes before L-DOPA administration, mice were given 6 mg/kg of Benserazide (Sigma) to inhibit peripheral DOPA decarboxylase. Beam balance test was done 1 h after L-DOPA injection, as described above. Video-recorded data for each mouse were analyzed later, and summarized for each group as mean±SEM; the numbers of animals used for these studies is identified on the graphs.
# [3] = test system: store-operated Ca^2+ entry (SOCE); assay: Ca^2+ imaging, store-operated Ca^2+ entry in MEFs; type: cell-based, mouse; conditions: MEFs from WT mice
# Procedure: (§1) MEFs were cultured in glass bottom dishes coated with fibronectin (2.5 μg/cm^2, Sigma, St. Louis, Mo., USA) for 24-48 hours. Intracellular Ca^2+ measurements were done similar to published earlier (57). Briefly, the cells were loaded with fura-2/AM (5 μM) (Invitrogen), and cytosolic Ca^2+ (measured as F340/F380 ratio) was recorded simultaneously in 10-20 individual cells using a dual-excitation fluorescence imaging system (Intracellular Imaging, USA): representative traces show an average (±SEM) for 10-20 cells recorded simultaneously. Ca^2+ changes were calculated as Δ Ratio(F340/F380), which is the difference between the basal and peak values of Ca^2+ responses.
# (§2) The following treatments were used in Ca^2+ studies (FIG. 14): TPEN (N,N,N′,N′-Tetrakis(2-pyridylmethyl)ethylenediamine, Sigma, USA) was applied (400 μM) directly to the cells during recording, 3 min before 2 mM Ca^2+ addition; (S)-BEL ((S)-bromoenol lactone, Cayman, USA) was applied (50 μM for 20 min in serum-free medium at 37° C.) to the cells after their loading with fura-2/AM, and was washed away before the start of experiment; EGTA (2.5 mM) was added to 2 mM Ca^2+-containing bath solution right before ionomycin (IM, 1 μM) application.
# [4] = test system: intracellular Ca^2+ stores; assay: Ca^2+ imaging, ionomycin-induced Ca^2+ release from intracellular stores in MEFs; type: cell-based, mouse; conditions: MEFs from KO^Ex2 mice compared to WT; IM 1 μM, extracellular EGTA
# Procedure: as §1, §2
structure (smiles),measurement,setting,value
O=C(O)CN(CCOCCOCCN(CC(=O)O)CC(=O)O)CC(=O)O [EGTA],effect on PLA2g6 catalytic activity,[1],activation
"N[C@@H](Cc1ccc(O)c(O)c1)C(=O)O [L-DOPA, L-3,4-dihydroxyphenylalanine]",number of missteps in beam balance test,"[2]; KO^Ex2 mice at 12, 16 and 24 months, L-DOPA 5-25 mg/kg, dose and age-dependent manner",significantly reduced
same,motor performance (PD-like motor dysfunction),"[2]; KO^Ex2 mice, L-DOPA 5-25 mg/kg peritoneal injection, Benserazide 6 mg/kg 20 min before, test 1 h after injection",significantly improved
"O=C1O/C(=C/Br)CC[C@H]1c1cccc2ccccc12 [S-BEL, (S)-bromoenol lactone]",effect on TPEN-induced Ca^2+ entry,[3]; S-BEL 50 μM for 20 min pretreatment,S-BEL-sensitive
same,effect on PLA2g6 catalytic activity,[1],inhibition
"c1ccc(CN(CCN(Cc2ccccn2)Cc2ccccn2)Cc2ccccn2)nc1 [TPEN, N,N,N′,N′-Tetrakis(2-pyridylmethyl)ethylenediamine]",store-operated Ca^2+ entry,[3]; TPEN 400 μM,activated
C[C@H](CCC(=O)O)C[C@H](C)C[C@H](C)C(=O)/C=C(\O)[C@H](C)C[C@H](C)C/C=C/[C@@H](C)[C@@H](O)[C@@H](C)[C@@H](O)C[C@@H]1CC[C@@](C)([C@H]2CC[C@@](C)([C@@H](C)O)O2)O1 [ionomycin],decrease in the peak of Ca^2+ release caused by ionomycin,[4],60%
